In ChEMBL document CHEMBL3994564 (Medchemcomm, 2016) one finds MIC and IC50 data, which are given here for three compounds.

pIC50: −log10 of the molar value. Converted amounts (≈) assume the structure as drawn.

Experiment [1] concerns Pseudomonas aeruginosa. Briefly: Antibacterial activity against Pseudomonas aeruginosa ATCC 27853 after 24 hrs by MTT assay. The conditions noted are these: ATCC 27853, 24 h. The class given is functional.
Experiment [2] deals with Escherichia coli. Briefly: Antibacterial activity against Escherichia coli ATCC 25922 after 24 hrs by MTT assay. Type of experiment: functional. To be noted: ATCC 25922, 24 h.
Experiment [3] has as its system NIH3T3. Briefly: Cytotoxic activity against mouse NIH/3T3 cells after 24 hrs by MTT assay. Type of experiment: cell-based. To be noted: NIH3T3, 24 h. A general note: Formazan colour is commonly taken as a measure of viable cells.
In experiment [4] the test system is Bacillus subtilis. In words: Antibacterial activity against Bacillus subtilis ATCC 530 after 24 hrs by MTT assay. The class given is functional. The conditions noted are these: ATCC 530, 24 h.
The test system of experiment [5] is Staphylococcus aureus. Briefly: Antibacterial activity against Staphylococcus aureus ATCC 6538 after 24 hrs by MTT assay. The class given is functional. The conditions noted are these: ATCC 6538, 24 h.
The target of experiment [6] is T1, Beta-ketoacyl-[acyl-carrier-protein] synthase III (Escherichia coli K-12, UniProt P0A6R0).
T1 sequence (P0A6R0 whole entry): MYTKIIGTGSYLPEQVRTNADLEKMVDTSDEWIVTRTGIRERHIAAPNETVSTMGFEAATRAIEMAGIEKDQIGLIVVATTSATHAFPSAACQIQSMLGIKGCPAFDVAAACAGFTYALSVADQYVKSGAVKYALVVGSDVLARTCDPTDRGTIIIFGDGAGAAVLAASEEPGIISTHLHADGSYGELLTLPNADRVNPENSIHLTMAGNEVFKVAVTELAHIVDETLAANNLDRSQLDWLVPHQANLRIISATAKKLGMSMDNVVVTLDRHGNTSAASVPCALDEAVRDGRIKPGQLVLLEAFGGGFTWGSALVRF
In words: Inhibition of Escherichia coli FabH expressed in Escherichia coli DH10B using holo-ACP/acetyl-CoA as substrate assessed as incorporation of [3H] signal in final product preincubated with holo-ACP for 1 hr followed by acetyl-CoA addition measured after 25 mins by liquid scintillation counting method.

By MIC is commonly meant the lowest concentration that inhibits growth of the organism. A word on the pIC50: it is −log10 of the IC50, conventionally taken in molar units. As to `O=C(N/N=C/c1ccc(C(F)(F)F)cc1)c1ccc2c(c1)OCCCO2`, the MIC in experiment [1] is 12.5 µg/mL (≈ 34.3 µM); in experiment [2], 25 µg/mL (≈ 68.6 µM); in experiment [4], 25 µg/mL (≈ 68.6 µM); in experiment [5], 12.5 µg/mL (≈ 34.3 µM). Further, the pIC50 in experiment [3] was 3.98; in experiment [6], 4.91.

Consider `O=C(N/N=C/c1ccc([N+](=O)[O-])cc1)c1ccc2c(c1)OCCCO2`, for which the MIC was 25 µg/mL (≈ 73.2 µM) in experiment [1], 25 µg/mL (≈ 73.2 µM) in experiment [2], 25 µg/mL (≈ 73.2 µM) in experiment [4] and 50 µg/mL (≈ 146 µM) in experiment [5]. The pIC50 in experiment [3] was 3.73; in experiment [6], 4.75.

Turning to `CN(C)c1ccc(/C=N/NC(=O)c2ccc3c(c2)OCCCO3)cc1`, the MIC in experiment [1] is 12.5 µg/mL (≈ 36.8 µM); in experiment [2], 6.25 µg/mL (≈ 18.4 µM); in experiment [4], 6.25 µg/mL (≈ 18.4 µM); in experiment [5], 6.25 µg/mL (≈ 18.4 µM). Also, the pIC50 was 3.87 in experiment [3] and 5.14 in experiment [6].
